Assay in all cases: cell-based
In one assay the target is hNav1.5 (Homo sapiens, UniProt Q14524). The conditions noted are these: IonWorks Quattro, use-dependent block, hNav1.5; read-out: IWQ Use Nav1.5.
The target of a further assay is hNav1.3 (Homo sapiens, UniProt Q9NY46). The conditions noted are these: IonWorks Quattro, use-dependent block, hNav1.3; read-out: IWQ Use Nav1.3.
A further assay concerns the target hNav1.7 (Homo sapiens, UniProt Q15858). The format is cell-based. The conditions noted are these: IonWorks Quattro, use-dependent block, hNav1.7; read-out: IWQ Use Nav1.7.

Positions of bridges follow the written chain, without caps; N, C: chain ends. Non-standard residues stand in square brackets, D forms with d. Residues, ends and D or L forms follow the SMILES beside them. *: point of attachment. Pent4ynoyl = C#CCCC(=O)*; Nva = CCC[C@H](N)C(=O)O; Abu = CC[C@H](N)C(=O)O Some results are limits rather than exact numbers.

Chain of hNav1.7 (Q15858 whole entry, looked up): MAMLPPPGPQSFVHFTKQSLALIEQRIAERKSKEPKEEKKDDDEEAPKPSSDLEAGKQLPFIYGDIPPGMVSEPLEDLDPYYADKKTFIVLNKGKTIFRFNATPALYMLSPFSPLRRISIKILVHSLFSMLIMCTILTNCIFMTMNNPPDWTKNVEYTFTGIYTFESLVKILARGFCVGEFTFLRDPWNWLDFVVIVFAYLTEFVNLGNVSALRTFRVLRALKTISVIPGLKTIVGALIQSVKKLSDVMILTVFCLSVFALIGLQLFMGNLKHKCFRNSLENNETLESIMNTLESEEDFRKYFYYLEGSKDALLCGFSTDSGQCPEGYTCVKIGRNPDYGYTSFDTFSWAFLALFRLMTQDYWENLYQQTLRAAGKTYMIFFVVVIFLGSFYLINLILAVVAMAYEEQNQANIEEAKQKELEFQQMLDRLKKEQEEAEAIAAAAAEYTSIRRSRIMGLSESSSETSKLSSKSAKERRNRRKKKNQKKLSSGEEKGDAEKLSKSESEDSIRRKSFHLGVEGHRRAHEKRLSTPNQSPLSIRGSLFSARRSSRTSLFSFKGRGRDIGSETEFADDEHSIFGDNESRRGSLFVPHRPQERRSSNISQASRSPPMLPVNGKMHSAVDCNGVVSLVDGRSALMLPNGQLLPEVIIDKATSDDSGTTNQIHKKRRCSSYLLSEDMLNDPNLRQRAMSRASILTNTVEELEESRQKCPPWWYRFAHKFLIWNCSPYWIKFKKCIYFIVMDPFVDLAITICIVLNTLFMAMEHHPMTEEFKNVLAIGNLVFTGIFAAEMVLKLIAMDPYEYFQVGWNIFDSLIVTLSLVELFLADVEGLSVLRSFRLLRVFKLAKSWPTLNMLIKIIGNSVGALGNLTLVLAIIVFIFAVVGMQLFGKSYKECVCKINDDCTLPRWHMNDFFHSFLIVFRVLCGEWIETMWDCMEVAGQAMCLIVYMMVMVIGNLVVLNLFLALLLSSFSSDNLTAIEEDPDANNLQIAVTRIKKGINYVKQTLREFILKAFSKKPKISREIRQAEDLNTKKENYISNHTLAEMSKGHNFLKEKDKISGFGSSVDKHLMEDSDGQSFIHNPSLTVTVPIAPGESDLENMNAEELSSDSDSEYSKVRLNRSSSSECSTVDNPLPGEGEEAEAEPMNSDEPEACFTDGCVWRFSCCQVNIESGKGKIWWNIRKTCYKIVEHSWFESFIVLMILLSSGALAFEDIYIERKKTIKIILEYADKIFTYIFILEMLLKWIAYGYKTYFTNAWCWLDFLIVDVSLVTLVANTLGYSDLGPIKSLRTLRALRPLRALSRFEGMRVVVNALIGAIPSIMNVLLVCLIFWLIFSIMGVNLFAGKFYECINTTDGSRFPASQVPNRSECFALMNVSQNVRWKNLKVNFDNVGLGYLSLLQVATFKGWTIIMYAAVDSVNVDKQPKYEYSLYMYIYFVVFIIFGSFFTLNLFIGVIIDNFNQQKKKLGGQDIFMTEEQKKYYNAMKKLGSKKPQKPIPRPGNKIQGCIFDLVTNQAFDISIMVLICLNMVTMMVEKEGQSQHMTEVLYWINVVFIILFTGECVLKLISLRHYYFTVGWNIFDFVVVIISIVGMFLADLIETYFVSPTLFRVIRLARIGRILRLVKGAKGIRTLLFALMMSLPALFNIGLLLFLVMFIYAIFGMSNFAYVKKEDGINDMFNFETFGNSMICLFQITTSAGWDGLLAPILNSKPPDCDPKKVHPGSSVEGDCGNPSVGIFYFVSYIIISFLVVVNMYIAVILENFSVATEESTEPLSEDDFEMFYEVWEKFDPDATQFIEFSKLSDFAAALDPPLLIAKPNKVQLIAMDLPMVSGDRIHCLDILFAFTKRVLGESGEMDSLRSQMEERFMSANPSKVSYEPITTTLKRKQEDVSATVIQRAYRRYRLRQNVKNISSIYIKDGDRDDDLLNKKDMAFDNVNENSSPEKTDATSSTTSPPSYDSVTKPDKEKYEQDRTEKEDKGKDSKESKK
Chain of hNav1.3 (Q9NY46 whole entry, looked up): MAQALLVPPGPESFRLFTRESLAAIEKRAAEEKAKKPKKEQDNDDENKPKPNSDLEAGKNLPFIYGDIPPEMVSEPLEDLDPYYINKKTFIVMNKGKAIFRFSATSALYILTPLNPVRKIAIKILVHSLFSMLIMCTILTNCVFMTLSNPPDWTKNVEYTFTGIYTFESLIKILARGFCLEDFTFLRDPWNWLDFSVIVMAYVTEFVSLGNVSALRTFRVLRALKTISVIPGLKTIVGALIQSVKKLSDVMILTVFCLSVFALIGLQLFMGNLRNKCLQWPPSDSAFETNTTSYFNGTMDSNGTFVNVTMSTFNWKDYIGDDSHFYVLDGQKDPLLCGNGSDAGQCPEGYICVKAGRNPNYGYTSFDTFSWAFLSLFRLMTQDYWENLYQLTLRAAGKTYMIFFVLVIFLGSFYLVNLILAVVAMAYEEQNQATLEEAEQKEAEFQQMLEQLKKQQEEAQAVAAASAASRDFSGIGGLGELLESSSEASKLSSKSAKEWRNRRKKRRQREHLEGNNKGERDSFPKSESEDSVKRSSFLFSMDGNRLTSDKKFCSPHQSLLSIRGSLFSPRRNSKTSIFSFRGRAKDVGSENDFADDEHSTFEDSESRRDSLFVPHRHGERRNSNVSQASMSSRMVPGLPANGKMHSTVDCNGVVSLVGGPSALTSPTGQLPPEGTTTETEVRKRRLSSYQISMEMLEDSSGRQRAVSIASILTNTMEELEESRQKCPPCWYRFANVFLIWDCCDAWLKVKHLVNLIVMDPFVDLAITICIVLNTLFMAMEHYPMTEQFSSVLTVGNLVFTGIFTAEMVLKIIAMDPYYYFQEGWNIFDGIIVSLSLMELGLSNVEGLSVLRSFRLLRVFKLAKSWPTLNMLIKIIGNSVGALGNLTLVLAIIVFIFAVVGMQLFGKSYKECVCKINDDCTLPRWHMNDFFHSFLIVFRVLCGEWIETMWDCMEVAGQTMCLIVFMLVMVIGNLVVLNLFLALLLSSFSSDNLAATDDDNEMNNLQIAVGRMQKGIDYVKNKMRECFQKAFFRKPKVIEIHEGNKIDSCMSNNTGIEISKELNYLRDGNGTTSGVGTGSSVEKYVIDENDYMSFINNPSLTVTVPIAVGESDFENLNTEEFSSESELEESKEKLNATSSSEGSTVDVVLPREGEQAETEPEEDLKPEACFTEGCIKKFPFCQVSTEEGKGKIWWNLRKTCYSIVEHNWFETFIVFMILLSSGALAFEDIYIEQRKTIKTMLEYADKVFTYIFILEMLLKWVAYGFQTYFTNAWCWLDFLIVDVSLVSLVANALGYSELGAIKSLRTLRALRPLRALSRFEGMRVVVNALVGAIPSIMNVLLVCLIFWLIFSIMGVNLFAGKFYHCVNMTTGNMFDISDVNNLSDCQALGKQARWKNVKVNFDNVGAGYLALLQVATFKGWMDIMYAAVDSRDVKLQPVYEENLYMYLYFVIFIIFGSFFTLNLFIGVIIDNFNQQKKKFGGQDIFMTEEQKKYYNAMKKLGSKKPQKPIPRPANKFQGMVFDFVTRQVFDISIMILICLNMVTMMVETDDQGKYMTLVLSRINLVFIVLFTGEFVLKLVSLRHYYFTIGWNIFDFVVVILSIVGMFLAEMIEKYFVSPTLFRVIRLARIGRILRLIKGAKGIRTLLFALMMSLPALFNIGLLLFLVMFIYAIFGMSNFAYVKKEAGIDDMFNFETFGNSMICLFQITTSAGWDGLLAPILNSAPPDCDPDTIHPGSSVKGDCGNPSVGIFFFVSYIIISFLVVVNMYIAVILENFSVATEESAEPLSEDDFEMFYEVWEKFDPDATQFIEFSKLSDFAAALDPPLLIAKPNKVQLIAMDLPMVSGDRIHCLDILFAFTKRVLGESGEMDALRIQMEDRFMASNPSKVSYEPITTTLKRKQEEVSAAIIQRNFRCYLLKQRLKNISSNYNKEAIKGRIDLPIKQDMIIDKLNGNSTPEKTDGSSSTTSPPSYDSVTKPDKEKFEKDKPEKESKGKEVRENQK

In the case of `C#CCCC(=O)NCCCC[C@@H]1NC(=O)[C@H](CC(=O)O)NC(=O)[C@@H]2CCCN2C(=O)[C@H]([C@@H](C)CC)NC(=O)[C@@H]2CSSC[C@@H]3NC(=O)[C@H](C(C)C)NC(=O)[C@H](CC(C)C)NC(=O)[C@H](CC(N)=O)NC(=O)[C@@H]4CCCN4C(=O)[C@H](CCCNC(=N)N)NC(=O)[C@H](CSSC[C@H](NC(=O)[C@@H](N)CC(=O)O)C(=O)N[C@@H](CC(C)C)C(=O)NCC(=O)N[C@@H](CC)C(=O)N[C@@H](Cc4ccccc4)C(=O)N[C@@H](CCCNC(=N)N)C(=O)N[C@@H](CCCCN)C(=O)N2)NC(=O)[C@H](CSSC[C@@H](C(=O)N[C@@H](CCCCN)C(=O)N[C@@H](Cc2ccc(O)cc2)C(=O)N[C@H](C(=O)N[C@@H](Cc2ccccc2)C(N)=O)C(C)C)NC(=O)[C@H](Cc2c[nH]c4ccccc24)NC(=O)[C@H](CCCCN)NC(=O)[C@H](Cc2c[nH]cn2)NC(=O)[C@H]([C@@H](C)O)NC(=O)[C@H](CCCNC(=N)N)NC(=O)[C@H](CO)NC3=O)NC(=O)[C@H](CCCCN)NC(=O)[C@H](CC(=O)O)NC1=O` [compound 804] (H-DCLG[Abu]FRKCIPDK(Pent4ynoyl)DKCCRPNLVCSRTHKWCKYVF-NH2; disulfide 2-17, 9-23, 16-30), the IC50 was greater than 50 µM at hNav1.5, 0.35 µM at hNav1.3 and 0.5 µM on hNav1.7.

Regarding `C#CCCC(=O)NCCCC[C@@H]1NC(=O)[C@H](CC(=O)O)NC(=O)[C@@H]2CCCN2C(=O)[C@H]([C@@H](C)CC)NC(=O)[C@@H]2CSSC[C@@H]3NC(=O)[C@H](C(C)C)NC(=O)[C@H](CC(C)C)NC(=O)[C@H](CC(N)=O)NC(=O)[C@@H]4CCCN4C(=O)[C@H](CCCNC(=N)N)NC(=O)[C@H](CSSC[C@H](NC(=O)[C@@H](N)CC(=O)O)C(=O)N[C@@H](CC(C)C)C(=O)NCC(=O)N[C@@H](CCC)C(=O)N[C@@H](CC(C)C)C(=O)N[C@@H](CCCNC(=N)N)C(=O)N[C@@H](CCCCN)C(=O)N2)NC(=O)[C@H](CSSC[C@@H](C(=O)N[C@@H](CCCCN)C(=O)N[C@@H](Cc2ccc(O)cc2)C(=O)N[C@H](C(=O)N[C@@H](Cc2ccccc2)C(N)=O)C(C)C)NC(=O)[C@H](Cc2c[nH]c4ccccc24)NC(=O)[C@H](CCCNC(=N)N)NC(=O)[C@H](Cc2c[nH]cn2)NC(=O)[C@H]([C@@H](C)O)NC(=O)[C@H](CCCNC(=N)N)NC(=O)[C@H](CO)NC3=O)NC(=O)[C@H](CCCCN)NC(=O)[C@H](CC(=O)O)NC1=O` [compound 805] (H-DCLG[Nva]LRKCIPDK(Pent4ynoyl)DKCCRPNLVCSRTHRWCKYVF-NH2; disulfide 2-17, 9-23, 16-30), the IC50 is 37.5 µM on hNav1.5, 0.27 µM on hNav1.3 and 0.31 µM at hNav1.7.

With `C#CCCC(=O)NCCCC[C@@H]1NC(=O)[C@H](CC(=O)O)NC(=O)[C@@H]2CCCN2C(=O)[C@H]([C@@H](C)CC)NC(=O)[C@@H]2CSSC[C@@H]3NC(=O)[C@H](C(C)C)NC(=O)[C@H](CC(C)C)NC(=O)[C@H](CC(N)=O)NC(=O)[C@@H]4CCCN4C(=O)[C@H](CCCNC(=N)N)NC(=O)[C@H](CSSC[C@H](NC(=O)[C@@H](N)CC(=O)O)C(=O)N[C@@H](CC(C)C)C(=O)NCC(=O)N[C@@H](CCC)C(=O)N[C@@H](CC(C)C)C(=O)N[C@@H](CCCNC(=N)N)C(=O)N[C@@H](CCCCN)C(=O)N2)NC(=O)[C@H](CSSC[C@@H](C(=O)N[C@@H](CCCCN)C(=O)N[C@@H](Cc2ccc(O)cc2)C(=O)N[C@H](C(=O)N[C@@H](Cc2ccccc2)C(N)=O)C(C)C)NC(=O)[C@H](Cc2c[nH]c4ccccc24)NC(=O)[C@H](CCCCN)NC(=O)[C@H](Cc2c[nH]cn2)NC(=O)[C@H]([C@@H](C)O)NC(=O)[C@H](CCCNC(=N)N)NC(=O)[C@H](CO)NC3=O)NC(=O)[C@H](CCCCN)NC(=O)[C@H](CC(=O)O)NC1=O` [compound 806] (H-DCLG[Nva]LRKCIPDK(Pent4ynoyl)DKCCRPNLVCSRTHKWCKYVF-NH2; disulfide 2-17, 9-23, 16-30), the IC50 on hNav1.5 is 34.2 µM; on hNav1.3, 0.39 µM; on hNav1.7, 0.29 µM.

For `C#CCCC(=O)N[C@@H](CC(=O)O)C(=O)N[C@H]1CSSC[C@@H]2NC(=O)[C@@H]3CSSC[C@@H](C(=O)N[C@@H](CCCCN)C(=O)N[C@@H](Cc4ccc(O)cc4)C(=O)N[C@H](C(=O)N[C@@H](Cc4ccccc4)C(N)=O)C(C)C)NC(=O)[C@H](Cc4c[nH]c5ccccc45)NC(=O)[C@H](CCCNC(=N)N)NC(=O)[C@H](Cc4c[nH]cn4)NC(=O)[C@H]([C@@H](C)O)NC(=O)[C@H](CCCNC(=N)N)NC(=O)[C@H](CO)NC(=O)[C@H](CSSC[C@H](NC(=O)[C@H](CCCCN)NC(=O)[C@H](CCCNC(=N)N)NC(=O)[C@H](CC(C)C)NC(=O)[C@H](CC)NC(=O)CNC(=O)[C@H](CC(C)C)NC1=O)C(=O)N[C@@H]([C@@H](C)CC)C(=O)N1CCC[C@H]1C(=O)N[C@@H](CC(=O)O)C(=O)N[C@@H](CC)C(=O)N[C@@H](CC(=O)O)C(=O)N[C@@H](CCCCN)C(=O)N3)NC(=O)[C@H](C(C)C)NC(=O)[C@H](CC(C)C)NC(=O)[C@H](CC(N)=O)NC(=O)[C@@H]1CCCN1C(=O)[C@H](CCCNC(=N)N)NC2=O` [compound 807] (Pent4ynoyl-DCLG[Abu]LRKCIPD[Abu]DKCCRPNLVCSRTHRWCKYVF-NH2; disulfide 2-17, 9-23, 16-30), the values for the IC50 on hNav1.5, at hNav1.3 and on hNav1.7 were 36.8 µM, 0.9 µM and 0.54 µM, respectively.

In the case of `C#CCCC(=O)NCCCC[C@@H]1NC(=O)[C@H](CC(=O)O)NC(=O)[C@@H]2CCCN2C(=O)[C@H]([C@@H](C)CC)NC(=O)[C@@H]2CSSC[C@@H]3NC(=O)[C@H](C(C)C)NC(=O)[C@H](CC(C)C)NC(=O)[C@H](CC(N)=O)NC(=O)[C@@H]4CCCN4C(=O)[C@H](CCCNC(=N)N)NC(=O)[C@H](CSSC[C@H](NC(=O)[C@@H](N)CC(=O)O)C(=O)N[C@@H](CC(C)C)C(=O)NCC(=O)N[C@@H](CC)C(=O)N[C@@H](CC(C)C)C(=O)N[C@@H](CCCNC(=N)N)C(=O)N[C@@H](CCCCN)C(=O)N2)NC(=O)[C@H](CSSC[C@@H](C(=O)N[C@@H](CCCCN)C(=O)N[C@@H](Cc2ccc(O)cc2)C(=O)N[C@H](C(=O)N[C@@H](Cc2ccccc2)C(N)=O)C(C)C)NC(=O)[C@H](Cc2c[nH]c4ccccc24)NC(=O)[C@H](CCC(=O)O)NC(=O)[C@H](Cc2c[nH]cn2)NC(=O)[C@H]([C@@H](C)O)NC(=O)[C@H](CCCNC(=N)N)NC(=O)[C@H](CO)NC3=O)NC(=O)[C@H](CCCCN)NC(=O)[C@H](CC(=O)O)NC1=O` [compound 808] (H-DCLG[Abu]LRKCIPDK(Pent4ynoyl)DKCCRPNLVCSRTHEWCKYVF-NH2; disulfide 2-17, 9-23, 16-30), the figures for the IC50 at hNav1.5, at hNav1.3 and at hNav1.7 were greater than 5 µM, 4.1 µM and 1.8 µM, respectively.

With `CC[C@H](C)[C@@H]1NC(=O)[C@@H]2CSSC[C@@H]3NC(=O)[C@H](C(C)C)NC(=O)[C@H](CC(C)C)NC(=O)[C@H](CC(N)=O)NC(=O)[C@@H]4CCCN4C(=O)[C@H](CCCNC(=N)N)NC(=O)[C@H](CSSC[C@H](NC(=O)[C@H](CC(=O)O)NC(=O)[C@H](CO)NC(=O)CN)C(=O)N[C@@H](CC(C)C)C(=O)NCC(=O)N[C@@H](C)C(=O)N[C@@H](Cc4ccccc4)C(=O)N[C@@H](CCCNC(=N)N)C(=O)N[C@@H](CCCCN)C(=O)N2)NC(=O)[C@H](CSSC[C@@H](C(=O)N[C@@H](CCCCN)C(=O)N[C@@H](Cc2ccc(O)cc2)C(=O)N[C@H](C(=O)N[C@@H](Cc2ccccc2)C(N)=O)C(C)C)NC(=O)[C@H](Cc2c[nH]c4ccccc24)NC(=O)[C@H](CCCNC(=N)N)NC(=O)[C@H](Cc2c[nH]cn2)NC(=O)[C@H]([C@@H](C)O)NC(=O)[C@H](CCCNC(=N)N)NC(=O)[C@H](CO)NC3=O)NC(=O)[C@H](CCCCN)NC(=O)[C@H](CC(=O)O)NC(=O)[C@H](CC(N)=O)NC(=O)[C@H](CC(=O)O)NC(=O)[C@@H]2CCCN2C1=O` [compound 811] (H-GSDCLGAFRKCIPDNDKCCRPNLVCSRTHRWCKYVF-NH2; disulfide 4-19, 11-25, 18-32), the IC50 at hNav1.5 was greater than 5 µM; on hNav1.3, 0.3 µM; on hNav1.7, 0.3 µM.

For the molecule `CC[C@H](C)[C@@H]1NC(=O)[C@@H]2CSSC[C@@H]3NC(=O)[C@H](C(C)C)NC(=O)[C@H](CC(C)C)NC(=O)[C@H](CC(N)=O)NC(=O)[C@@H]4CCCN4C(=O)[C@H](CCCNC(=N)N)NC(=O)[C@H](CSSC[C@H](NC(=O)[C@H](CC(=O)O)NC(=O)[C@H](CO)NC(=O)CN)C(=O)N[C@@H](CC(C)C)C(=O)NCC(=O)N[C@@H](C)C(=O)N[C@@H](CC(C)C)C(=O)N[C@@H](CCCNC(=N)N)C(=O)N[C@@H](CCCCN)C(=O)N2)NC(=O)[C@H](CSSC[C@@H](C(=O)N[C@@H](CCCCN)C(=O)N[C@@H](Cc2ccc(O)cc2)C(=O)N[C@H](C(=O)N[C@@H](Cc2ccccc2)C(N)=O)C(C)C)NC(=O)[C@H](Cc2c[nH]c4ccccc24)NC(=O)[C@H](CCCNC(=N)N)NC(=O)[C@H](Cc2c[nH]cn2)NC(=O)[C@H]([C@@H](C)O)NC(=O)[C@H](CCCNC(=N)N)NC(=O)[C@H](CO)NC3=O)NC(=O)[C@H](CCCCN)NC(=O)[C@H](CC(=O)O)NC(=O)[C@H](CC(N)=O)NC(=O)[C@H](CC(=O)O)NC(=O)[C@@H]2CCCN2C1=O` [compound 812] (H-GSDCLGALRKCIPDNDKCCRPNLVCSRTHRWCKYVF-NH2; disulfide 4-19, 11-25, 18-32), the IC50 on hNav1.5 was greater than 5 µM; on hNav1.3, 0.2 µM; at hNav1.7, 0.2 µM.

Values taken from patent US9340590B2 (priority 2011, dated 2016).
